# Ends that are not written are not given here. FPI774 = near-infrared fluorescent reagent (label)
# How the values were obtained:
# [1] = tested on: tumors of K-ras^LA2 transgenic mouse; test: Target transfer capability of FPI774-CRQTKN peptide (near-infrared organ imaging); format: in vivo; settings: tail vein, 4 hours; for fluorescence of FPI774 in the lungs: FIG. 6A
# Description: To confirm the binding capability of the CRQTKN peptide (SEQ ID NO: 4) to the K-ras tumors, the FPI774-CRQTKN (SEQ ID NO: 13) peptide, which is a peptide labeled with a near-infrared fluorescent reagent FPI774, and a control peptide were administered into a K-ras^LA2 transgenic mouse and a normal mouse via the tail vein of each mouse.
# After 4 hours, the mice were scarified, and each organ thereof was extracted for the near-infrared fluorescence imaging using the eXplore Optix system (ART Inc, Montreal, Canada).
# [2] = tested on: K-ras transgenic tumor cells; test: Phage library screening and sequence analysis of phage clones; format: in vivo, mouse; settings: phage clones from 4th and 5th screening rounds, sequence analysis
# Description: To screen peptides having specificity to K-ras transgenic tumor cells in the T7 CX7C phage library prepared above, a random peptide phage library (1×10^11 pfu) were injected into a K-ras^LA2 transgenic mouse via the tail vein.
# After 15 minutes, the tumor was excised from the lungs of the K-ras^LA2 transgenic mouse, finely ground, and added to a DMEM medium to prepare a cell suspension, which was then passed through a70-M filter (DAKO, Carpinteria, Calif., USA). The phages bound to the tumor were reacted with 1% NP-40 for 10 minutes for separation. Afterwards, the separated phages were recovered by treatment with cultured BL21 host bacteria. The phages that were recovered by the BL21 host bacteria and amplified were injected into a K-ras^LA2 transgenic mouse via the tail vein. Such a round of the screening of phage library was repeated five times. […] At the final 5th round, the multiplicative […] of the phage clones increased 162 times the first round. Afterwards, from the 4th round and the 5th rounds, a total of 49 clones were randomly selected for the sequencing.
# DNA inserts of each of the 49 phage clones collected in Example 2-2 were sequenced by an automated DNA sequencer (Genotech Inc., Daegeon and SolGent Inc. Daegu) using a 96 pill primer (New England Biolabs). To find amino acid motifs shared between the common sequences or peptides, amino acid sequences deduced based on the nucleotide sequences were was aligned by using the Clustal W program. To find proteins having significant homology, NCBI BLAST search was performed with respect to peptide sequences. As a result of the sequence analysis of the peptides, four phage clones with high affinity for the K-ras transgenic tumor cells were confirmed, and the peptide sequences thereof were as follows: CKSRKDGAC (4R-3, SEQ ID NO: 1), CMPKRPSSC (4R-16, SEQ ID NO: 2), CRGTAEG (4R-21, SEQ ID NO: 3), and CRQTKN (5R-7, SEQ ID NO: 4).
# [3] = tested on: tumors of the K-ras^LA2 transgenic mouse; test: Near-infrared fluorescence imaging of FPI774-labeled tumor-targeting peptides; format: in vivo; settings: FPI774-labeled peptide, tail vein, 4 hours, FIG. 5
# Description: To validate whether the peptides prepared in <Example 2-5> in the present invention were specifically transferred to the tumor cells of the K-ras^LA2 transgenic mouse, a control peptide and a peptide labeled with FPI774 and having SEQ ID NO: 1 to SEQ ID NO: 4 were injected into the K-ras^LA2 transgenic mouse and a normal mouse via the tail vein of each mouse. After 4 hours, the mice were sacrificed, and each organ thereof was extracted for the near-infrared fluorescence imaging using the eXplore Optix system (ART Inc, Montreal, Canada).
# [4] = tested on: tumor of K-ras^LA2 transgenic mouse; test: Binding capability of phage clones to tumor (phage titer); format: in vivo; settings: phage clone expressing the peptide administered into K-ras^LA2 transgenic mouse; FIG. 4B
# Description: The phage clones that express each of the peptides were administered into the K-ras^LA2 transgenic mouse, and bound to tumor, and a titer of the phage clones was measured.
substance,measurement,setting,value
FPI774-CRQTKN: CRQTKN peptide labeled with a near-infrared fluorescent reagent FPI774,fluorescence of FPI774 in the lungs,[1]; K-ras^LA2 transgenic mouse,strongly expressed
same,fluorescence of FPI774 in the lungs,[1]; normal mouse,not expressed
same,fluorescence of FPI774 in organs other than the lungs (kidney and liver),[1]; FIG. 6B,not observed in general
CRQTKN: tumor-targeting peptide CRQTKN identified by phage library screening (5R-7 peptide),affinity of phage clones for the K-ras transgenic tumor cells,[2],high affinity
same,transfer to the tumors (near-infrared fluorescence),[3],most strongly transferred
CMPKRPSSC (4R-16 peptide) [tumor-targeting peptide … identified by phage library screening],affinity of phage clones for the K-ras transgenic tumor cells,[2],high affinity
CRGTAEG (4R-21 peptide) [tumor-targeting peptide CRGTAEG identified by phage library screening],affinity of phage clones for the K-ras transgenic tumor cells,[2],high affinity
CKSRKDGAC (4R-3 peptide) [tumor-targeting peptide … identified by phage library screening; tested as phage clone and as FPI774-labeled peptide],binding capability of phage clone to the tumor (titer),[4],greatest binding capability
same,affinity of phage clones for the K-ras transgenic tumor cells,[2],high affinity

# Reference: patent US10370410B2, “Cancer cell-targeting peptide and use thereof” (KYUNGPOOK NATIONAL UNIVERSITY INDUSTRY-ACADEMIC COOPERATION …, priority 2015, dated 2019)
